Experimental data reported in publication PMC5663395, “Chemical Validation of Methionyl-tRNA Synthetase as a Druggable Target in Leishmania donovani” (ACS Infectious Diseases, 2017).
Read-outs that look alike come from different tables or passages of the source.

Experiments:
[1] = tested on: protein synthesis in Leishmania tarentolae cell extract; test: Leishmania tarentolae in vitro translation (eGFP expression in cell extract); type: biochemical; conditions: L. tarentolae extract, read-out: EC50 inhibition of eGFP protein synthesis
Protocol: Crystals of TbMetRS:Met were obtained by incubating TbMetRS with 10 mM methionine and 1 mM TCEP before crystallisation by sitting drop vapour diffusion against a reservoir solution containing 2.0-2.3 M Ammonium Sulphate, 0.2 M NaCl, 0.1 M Na Cacodylate pH 6.0-6.6. Single crystals grew after 3-4 days incubation at 18 °C. To obtain ternary TbMetRS:Met:Ligand complexes, TbMetRS:Met crystals were soaked for 10-30 seconds in a 10 μl drop consisting of 1 μl of ligand (20 mM in 20% DMSO), 4 μl reservoir solution and 5 μl glycerol. Crystals were flash frozen immediately in liquid nitrogen in preparation for data collection.
Diffraction data were measured at Diamond Light Source beamline I02. […]
Protein translation in a Leishmania cell extract was studied using a commercially available cell-free protein expression kit (Jena Bioscience). Reactions were carried out in black 384-well, small-volume plates (Greiner) in 10 µl reaction volumes containing 7 µl L. tarentolae cell extract, 1 µl eGFP DNA template and 2 µl nuclease free water (‘no DNA’ wells were included as negative controls). eGFP expression was monitored over time using a BMG PheraStar plate reader (Excitation 485 nm; […]
The effect of DDD806905 on mitochondrial protein synthesis was determined by BioDuro using the MitoBiogenesisTM In-Cell ELISA Kit (Abcam). […] In the assay the levels of SDH-A and COX-1 are measured in H9C2 cells. […]

[2] = Plasma protein binding, equilibrium dialysis, mouse plasma; type: in vitro ADME; conditions: female, CD1, read-out: fu (unbound fraction)
Protocol: which gave the best fit to the data was then recorded as the logP. Using the logP and an experimentally determined pKa (see above), the software generated a lipophilicity plot showing changes in the logD with increasing pH and from this plot a logD7.3 and logD5.6 values were recorded.
Plasma Protein Binding Determination
A 96-well equilibrium dialysis apparatus was used to determine the free fraction in plasma for DDD806905 (HT Dialysis LLC, Gales Ferry, CT). Membranes (12-14 kDA cut-off) were conditioned in deionised water for 60 minutes, followed by conditioning in 80:20 deionised water:ethanol for 20 minutes, and then rinsed in isotonic buffer before use. Female CD1 mouse plasma or human plasma was removed from the freezer and allowed to thaw on the day of experiment. Thawed plasma was then centrifuged (Allegra X12-R, Beckman Coulter, USA), spiked with test compound (final concentration 10 μg/ml), and 150 μL aliquots (n=6 replicate determinations) loaded into the 96-well equilibrium dialysis plate. […] All samples were analysed by UPLC-MS/MS on a Quattro Premier XE Mass Spectrometer (Waters Corporation, USA).
The unbound fraction (fu) was determined as the ratio of the peak area in buffer to that in plasma. […]

in vivo = conditions: female, Balb/c, mouse, iv

Work on `Cl.Cl.O=c1nc(NCCCNCc2cc3c(Cl)cc(Cl)cc3[nH]2)[nH]c2ccccc12` [DDD806905, 2-((3-(((4,6-dichloro-1H-indol-2-yl)methyl)amino)propyl)amino)quinazolin-4(1H)-one dihydrochloride] yielded an EC50 ([1]; additional 1.5 mM methionine) of 12 µM, an EC50 ([1]; no additional methionine) of 2.2 µM and a fraction unbound at 5 h, 10 μg/ml [2] of 0.006. The Vd (in vivo) was 6 L/kg.
